From patent US12589114B2 (The Board of Trustees of the Leland Stanford Junior …, priority 2019, dated 2026)
Each block holds one molecule with its values, some of them ahead of it.

What was measured:
human CD34+ cells [1] = experiment: Real-time PCR of megakaryocyte-related genes in 7-day differentiated cells from CD34+ bone marrow cells; assay type: cell-based
Experimental: (§1) We treated human CD34+ cells with different agonists and antagonists of GABRR1.
RNA isolation and Real-Time PCR. Total RNA was extracted by RNeasy Plus Micro kit and RNeasy MinElute Cleanup Kit following manufacturer's instructions (Qiagen). Synthesis of cDNA was performed with the SuperScript™ III Reverse Transcriptase (ThermoFisher Scientific). Real time PCR was done using the Fast SYBR® Green Master Mix (ThermoFisher Scientific) on the 7900 Fast Real-Time PCR System (Applied Biosystems). PCR products were analyzed on a 2% agarose gel.

GABRR1 [2] = target: T1, GABRR1 (Mus musculus, UniProt P56475); experiment: Patch-clamp recording of GABA-evoked currents in purified GR+ and GR− MkPs and HSCs; assay type: cell-based; conditions: 1 mM GABA, whole-cell patch clamp
T1 construct: Mice were randomly grouped and injected once everyday using GABA agonists and antagonists; from tissue; host or cells: whole animal (C57BL/6J mice); read-outs in peripheral blood and bone marrow
T1 sequence (P56475 22-480): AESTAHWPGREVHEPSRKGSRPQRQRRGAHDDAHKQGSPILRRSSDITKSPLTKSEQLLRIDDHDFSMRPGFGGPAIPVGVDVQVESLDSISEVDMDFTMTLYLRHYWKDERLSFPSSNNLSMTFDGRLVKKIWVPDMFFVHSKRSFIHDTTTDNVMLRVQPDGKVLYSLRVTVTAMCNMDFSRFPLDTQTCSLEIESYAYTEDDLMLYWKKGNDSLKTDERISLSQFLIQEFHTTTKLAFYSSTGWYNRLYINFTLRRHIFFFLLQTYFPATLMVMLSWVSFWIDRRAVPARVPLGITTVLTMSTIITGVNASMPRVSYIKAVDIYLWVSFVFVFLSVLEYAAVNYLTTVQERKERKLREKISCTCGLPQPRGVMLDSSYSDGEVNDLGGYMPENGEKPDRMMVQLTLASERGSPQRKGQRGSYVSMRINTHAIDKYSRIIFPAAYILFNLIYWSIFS
From the text: Gabrr1^+ (GR^+) and Gabrr1^− (GR^−) HSCs or MkPs cells were then purified and tested by electrophysiological recording using patch-clamp techniques.
Electrophysiology. Whole-cell voltage-clamped recordings were made from the dissociated blood cells perfused in oxygenated ACSF containing the following (in mM): 119 NaCl, 26 NaHCO3, 10 glucose, 1.25 NaH2PO4, 2.5 KCl, 2 CaCl2, 1 MgCl2, 2 Na-pyruvate, and 0.5 ascorbic acid, pH 7.4. […] Cells were voltage clamped at various levels between −80 mV to 60 mV. The pipette internal solution contains (in mM): 120 Cs—Cl, 20 tetraethylammonium-Cl, 20 HEPES, 2 EGTA, 4 MgATP, 0.4 NaGTP, 10 phosphocreatine.
The drug was applied through a second pipette (resistance of 3-4 MΩ) connected to Picospritzer (Cleveland, OH, USA) at a pulse duration of 100 ms and pressure of 5-10 kPa.

GABRR1 [3] = target: T1, GABRR1; experiment: Flow cytometry of bone marrow HSPC populations of mice treated with agonists or antagonists of Gabrr1; assay type: in vivo; conditions: C57BL/6J mice, 7 days of treatment
Experimental: (§2) Mouse injection. […] Muscimol 2 mg/kg, TACA 2 mg/kg and SR95531 4 mg/kg was injected by i.p. The mice were treated for 7 days and then complete blood cell counting was done with the HemaTrue Hematology Analyzer (HESKE).
Flow Cytometry. Mouse bone marrow cells were harvested, washed, and resuspended in PBS containing 2% FBS, and subjected to the staining process with antibodies at their optimal concentrations. […] Then, to enrich HSCs and progenitor populations, cells were stained with APC-conjugated anti-c-Kit (2B8) and then with anti-APC magnetic beads (Miltenyi Biotec) after washing. The c-Kit+cells were eluted from LS columns (Miltenyi Biotec). Those cells then stained with the antibody cocktail directed against cell surface antigens as follows: for early progenitor analysis, Sca-1, Flk2, CD150, CD34, IL-7R, CD16/32, c-kit and the lineage markers Ter-119, B220, CD3, CD4, CD8a, Gr-1, CD11b, CD41. For late stage populations, cells were stained with antibodies specific for Sca-1, Endoglin [CD105], CD150, CD16/32, c-kit [CD117] and the lineage markers for 30 min at 4° C., DNA dye was used for the live/dead cells staining.
Surface marker cocktail of mouse hematopoietic stem and progenitor populations: • HSC: Lin-c-kit+Sca1+CD150+Endoglin+ • MPP: Lin-c-kit+Sca1+Endoglin−CD150− • GMP: Lin-c-kit+Sca1− CD41−FcgRII+ • EP: Lin-c-kit+Sca1− CD41−FcgRII−Endogilin+CD150− • MkP: Lin-c-kit+Sca1− CD150+CD41+ • PreGM: Lin-c-kit+Sca1− CD41−FcgRII−Endogilin−CD150− • Pre CFU-E: Lin-c-kit+Sca1− CD41−FcgRII−Endogilin+CD150+ • MEP: Lin-c-kit+Sca1− CD41−FcgRII−Endogilin−CD150+.

GABRR1 [4] = target: T1, GABRR1; experiment: Complete blood cell counts in peripheral blood of mice treated with agonists or antagonists of Gabrr1; assay type: in vivo; conditions: C57BL/6J mice, 7 days of treatment, injected once every day
Experimental: as §2

human CD34+ cells [5] = experiment: CFU-MK colony-forming assay from CD34+ bone marrow cells; assay type: cell-based
Experimental: as §1
Colony-Forming Unit Assay. Colony forming assay was performed using the MegaCult™-C Complete Kit with Cytokines (Stemcell Tech, 04971)) following manufacturer's instruction, Colonies were counted after 12-14 days of culture and megakaryopoietic colonies were stained using antibody provided in the kit.

human CD34+ cells [6] = experiment: Flow cytometry of HSPC populations after 7-day differentiation of human CD34+ cells treated with agonists or antagonists of GABRR1; assay type: cell-based
Experimental: as §1
Cell Isolation and Culture. Human bone marrow mononuclear cells were purchased from AllCells and cultured in StemSpan™ Serum-Free Expansion Medium II (SFEM II, StemCell Technologies), supplemented with 20 ng/ml hSCF (PeproTech), hTPO, hIL-3, hIL-6 and Flt3 (R&D Systems). Mouse bone marrow mononuclear cells were isolated from mice and cultured in StemSpan™ SFEMI (StemCell Technologies), supplemented with mTPO and mSCF (PeproTech). […] Medium was changed every other day.
Human bone marrow or cord blood cells were stained in a similar way using Rat IgG for blocking and PI for viability. Human cells were stained with the antibodies cocktails as follows: CD34, CD38, CD45RA, CD123, CD71, CD105, CD41 and the lineage markers CD2, CD4, CD8, CD11b/Mac-1, CD14, CD19, CD20, CD56 and CD235a. The GABRR1 antibodies were also used for staining (Bloss Antibodies).
Surface marker cocktail of human hematopoietic stem and progenitor populations: • HSCs/MPPs: Lin-CD34+CD38− • MkP: Lin-CD34+CD38+CD123−CD45RA−CD41+ • CMP: Lin-CD34+CD38+CD123lowCD45RA− • MEP: Lin-CD34+CD38+CD123−CD45RA− • GMP: Lin-CD34+CD38+CD123+CD45RA+ • EP: Lin-CD34+CD38+CD123−CD45RA−CD71+CD150+.

[7] = 7-day differentiated human CD34+ cells, relative to non-treated cells

SMILES: NCCCC(=O)O [GABA, 4-aminobutanoic acid]
Megakaryocyte-related gene expression (human CD34+ cells [1]): significantly increased | GABA-induced currents in GR+ HSCs (GABRR1 [2]): significant currents were induced | GABA-induced inward current in GR+ MkP cells (GABRR1 [2]; various membrane potentials): prominent GABA-induced inward current | Increase of bone marrow MkPs (GABRR1 [3]): 63.7%±24.4%

SMILES: NCc1cc(=O)[nH]o1 [Muscimol, muscimol]
Increase of platelet numbers (GABRR1 [4]): 35.0%±13% | Increase of bone marrow MkPs (GABRR1 [3]): 55.0%±26.7%

SMILES: Br.COc1ccc(-c2ccc(=N)n(CCCC(=O)O)n2)cc1 [SR95531]
Decrease in megakaryocyte colonies (human CD34+ cells [5]): 40% | Increase of platelet numbers (GABRR1 [4]): did not affect platelet number significantly | Change of CD34+CD41+ population (MkP) (human CD34+ cells [6]; [7]): decreased dramatically | Change of CD34+CD71+ population (EP) (human CD34+ cells [6]; [7]): decreased dramatically | Frequency of all HSPCs tested (human CD34+ cells [6]; multicolor flow cytometry, 7 days of differentiation from CD34+ bone marrow cells): decreased the frequency of all HSPCs tested | MkP frequency relative to non-treated cells (human CD34+ cells [6]; multicolor flow cytometry, 7 days of differentiation from CD34+ bone marrow cells, non-treated set to 1): 40.3%±13.6%

Increase of platelet numbers (GABRR1 [4]): 24.6%±19.0% | Increase of bone marrow MkPs (GABRR1 [3]): 23.3%±31.1%
SMILES: NC/C=C/C(=O)O [TACA, trans-4-aminocrotonic acid]
